# From patent US9216169B2, “Pharmaceutical composition comprising candesartan or ester thereof and chlortalidone, and use thereof” (TIANJIN INSTITUTE OF PHARMACEUTICAL RESEARCH, priority 2011, dated 2015)
# How the values were obtained:
# [1] = tested on: Spontaneously hypertensive rats (SHR); test: SBP of SHR by Tail-Cuff method, continuous intragastric administration for 8 days (Examples 1-7); format: in vivo, rat
# Protocol: Spontaneously hypertensive rats (SHR), male, are provided by Beijing Vital River Laboratory Animal Technology Co., Ltd. The number of animal production license is SCXK (Jing) 2007-0001. Animals are raised in an observation room at the room temperature of 25±2° C. controlled by central air-conditioning system and with artificial lighting of 12 h/day. The animals are raised in separate cages sized 43×27×18 cm with 4 animals for each cage. The rats are free access to water and are fed with block fodder everyday, and the water supply is refreshed once a day. The temperature of the room for measuring the blood pressure is 26±2° C.
# The blood pressure is measured by Tail-Cuff method and the hear rate is measured according to the pulse frequency. Animals are pre-trained for the blood pressure measurement for more than 2 weeks so as to adapt to the environment of measurement. Animals are placed in a isothermal bag at 37° C. to be prewarmed for 5 to 10 min for formal measurement. Blood pressures of the rats are measured from tail arteries for 2 to 3 times at rest states, and an average value is taken as each blood pressure measured value. All data are collected and preserved by a computer.
# SHRs with systolic blood pressures (SBPs) >190 mmHg are selected for experiment.
# Rats are randomly divided into 14 groups according to their blood pressures with each group having 7 rats. Animals are fasted overnight and measured for the blood pressure of pre-administration at the day of experiment, and then administered drugs in accordance with the following method:
# The single-drug group is intragastrically administered candesartan (Can) or chlorthalidone (Chl), with the dosage of Can of 0.36 mg/kg and the dosages of Chl of 0.0675, 0.36, 0.54, 0.72, 1.125 and 2.25 mg/kg respectively;
# The pharmaceutical composition is administered with 6 different doses (denoted by F1, F2, F3, F4, F5 and F6 respectively). Specifically, the ratios of the dosages of Can+Chl in all pharmaceutical compositions are:
# The administration volumes are all 5 ml/kg.
# Rats are continuously administered for 8 days. SBPs are measured 2, 4, 8, 12 and 24 hours after the last administration. The area under blood pressure reduction-time curve from 0 to 24 h (AUC0-24) and the maximum blood pressure reduction value are calculated.
# The calculated results are expressed as mean±standard error ( x±SE); statistical treatment is performed using unpaired t test between groups to compare the significance of the average difference; the interaction between drugs are determined by using factorial analysis of variance, and P<0.05 means the difference has statistical significance.
# [2] = cited from earlier work
# patients = details: study in 1714 patients; cited from earlier work
# [3] = tested on: Spontaneously hypertensive rats (SHR); test: SBP of SHR by Tail-Cuff method, first administration and continuous administration for 14 days (Examples 8-12); format: in vivo, rat
# [4] = Chl 0.0675 mg/kg i.g. 8 days, 2 h after last administration
# [5] = Chl 0.0675 mg/kg i.g. 8 days, 4 h after last administration
# [6] = Chl 0.0675 mg/kg i.g. 8 days, 8 h after last administration
# [7] = Chl 0.0675 mg/kg i.g. 8 days, 12 h after last administration
# [8] = Chl 0.0675 mg/kg i.g. 8 days, 24 h after last administration
# [9] = Chl 0.0675 mg/kg i.g. 8 days, pre-administration
# [10] = Chl 0.36 mg/kg i.g. 8 days (Table 2), 2 h after last administration
# [11] = Chl 0.36 mg/kg i.g. 8 days (Table 2), 4 h after last administration
# [12] = Chl 0.36 mg/kg i.g. 8 days (Table 2), 8 h after last administration
# [13] = Chl 0.36 mg/kg i.g. 8 days (Table 2), 12 h after last administration
# [14] = Chl 0.36 mg/kg i.g. 8 days (Table 2), 24 h after last administration
# [15] = Chl 0.36 mg/kg i.g. 8 days (Table 2), pre-administration
# [16] = Chl 1.125 mg/kg i.g. 8 days, 2 h after last administration
# [17] = Chl 1.125 mg/kg i.g. 8 days, 4 h after last administration
# [18] = Chl 1.125 mg/kg i.g. 8 days, 8 h after last administration
# [19] = Chl 1.125 mg/kg i.g. 8 days, 12 h after last administration
# [20] = Chl 1.125 mg/kg i.g. 8 days, 24 h after last administration
# [21] = Chl 1.125 mg/kg i.g. 8 days, pre-administration
# [22] = Chl 2.25 mg/kg i.g. 8 days, 2 h after last administration
# [23] = Chl 2.25 mg/kg i.g. 8 days, 4 h after last administration
# [24] = Chl 2.25 mg/kg i.g. 8 days, 8 h after last administration
# [25] = Chl 2.25 mg/kg i.g. 8 days, 12 h after last administration
# [26] = Chl 2.25 mg/kg i.g. 8 days, 24 h after last administration
# [27] = Chl 2.25 mg/kg i.g. 8 days, pre-administration
# [28] = Chl, dosage 0.36 mg/kg in Table 3 (Example 3 title: 0.54 mg/kg), i.g. 8 days, 2 h after last administration
# [29] = Chl, dosage 0.36 mg/kg in Table 3 (Example 3 title: 0.54 mg/kg), i.g. 8 days, 4 h after last administration
# [30] = Chl, dosage 0.36 mg/kg in Table 3 (Example 3 title: 0.54 mg/kg), i.g. 8 days, 8 h after last administration
# [31] = Chl, dosage 0.36 mg/kg in Table 3 (Example 3 title: 0.54 mg/kg), i.g. 8 days, 12 h after last administration
# [32] = Chl, dosage 0.36 mg/kg in Table 3 (Example 3 title: 0.54 mg/kg), i.g. 8 days, 24 h after last administration
# [33] = Chl, dosage 0.36 mg/kg in Table 3 (Example 3 title: 0.54 mg/kg), i.g. 8 days, pre-administration
# [34] = Chl, dosage 0.36 mg/kg in Table 4 (Example 4 title: 0.72 mg/kg), i.g. 8 days, 2 h after last administration
# [35] = Chl, dosage 0.36 mg/kg in Table 4 (Example 4 title: 0.72 mg/kg), i.g. 8 days, 4 h after last administration
# [36] = Chl, dosage 0.36 mg/kg in Table 4 (Example 4 title: 0.72 mg/kg), i.g. 8 days, 8 h after last administration
# [37] = Chl, dosage 0.36 mg/kg in Table 4 (Example 4 title: 0.72 mg/kg), i.g. 8 days, 12 h after last administration
# [38] = Chl, dosage 0.36 mg/kg in Table 4 (Example 4 title: 0.72 mg/kg), i.g. 8 days, 24 h after last administration
# [39] = Chl, dosage 0.36 mg/kg in Table 4 (Example 4 title: 0.72 mg/kg), i.g. 8 days, pre-administration
# [40] = 12.5-25 mg/d of chlorthalidone, clinical studies
smiles,measurement,setting,value
"NS(=O)(=O)c1cc(C2(O)NC(=O)c3ccccc32)ccc1Cl (centres unmarked) [Chl, Chlorthalidone]",antihypertensive effect after the administration,[1]; Chl 0.0675 mg/kg,no significant antihypertensive effect
same,AUC0-24h (area under blood pressure reduction-time curve),[1]; Chl 0.0675 mg/kg i.g. 8 days,−9.0 mmHg · h
same,maximum reduction of the blood pressure,[1]; Chl 0.0675 mg/kg i.g. 8 days,−4.7 mmHg
same,SBP,[1]; [4],203 mmHg
same,SBP difference value compared with the basic value,[1]; [4],(−2.1 mmHg
same,SBP,[1]; [5],206 mmHg
same,SBP difference value compared with the basic value,[1]; [5],(0.6 mmHg
same,SBP,[1]; [6],204 mmHg
same,SBP difference value compared with the basic value,[1]; [6],(−1.4 mmHg
same,SBP,[1]; [7],203 mmHg
same,SBP difference value compared with the basic value,[1]; [7],(−2.0 mmHg
same,SBP,[1]; [8],207 mmHg
same,SBP difference value compared with the basic value,[1]; [8],(2.1 mmHg
same,SBP,[1]; [9],208 mmHg
same,SBP difference value compared with the basic value,[1]; [9],(2.3 mmHg
same,AUC0-24h (area under blood pressure reduction-time curve),[1]; Chl 0.36 mg/kg i.g. 8 days,−26.0 mmHg · h
same,maximum reduction of the blood pressure,[1]; Chl 0.36 mg/kg i.g. 8 days,−3.7 mmHg
same,SBP,[1]; [10],205 mmHg
same,SBP difference value compared with the basic value,[1]; [10],(−0.6 mmHg
same,SBP,[1]; [11],204 mmHg
same,SBP difference value compared with the basic value,[1]; [11],(−1.3 mmHg
same,SBP,[1]; [12],204 mmHg
same,SBP difference value compared with the basic value,[1]; [12],(−1.3 mmHg
same,SBP,[1]; [13],204 mmHg
same,SBP difference value compared with the basic value,[1]; [13],(−1.4 mmHg
same,SBP,[1]; [14],205 mmHg
same,SBP difference value compared with the basic value,[1]; [14],(−0.4 mmHg
same,SBP,[1]; [15],204 mmHg
same,SBP difference value compared with the basic value,[1]; [15],(−1.4 mmHg
same,AUC0-24h (area under blood pressure reduction-time curve),[1]; Chl 0.54 mg/kg i.g. 8 days,−57.0 mmHg · h
same,maximum reduction of the blood pressure,[1]; Chl 0.54 mg/kg i.g. 8 days,−4.7 mmHg
same,AUC0-24h (area under blood pressure reduction-time curve),[1]; Chl 0.72 mg/kg i.g. 8 days,−79.0 mmHg · h
same,maximum reduction of the blood pressure,[1]; Chl 0.72 mg/kg i.g. 8 days,−5.7 mmHg
same,time after administration at which an antihypertensive effect is seen,[1]; Chl 1.125 mg/kg,4 h
same,AUC0-24h (area under blood pressure reduction-time curve),[1]; Chl 1.125 mg/kg i.g. 8 days,−110.0 mmHg · h
same,maximum reduction of the blood pressure,[1]; Chl 1.125 mg/kg i.g. 8 days,−12.0 mmHg
same,SBP,[1]; [16],205 mmHg
same,SBP difference value compared with the basic value,[1]; [16],(−2.9 mmHg
same,SBP,[1]; [17],199 mmHg
same,SBP difference value compared with the basic value,[1]; [17],(−8.9 mmHg
same,SBP,[1]; [18],201 mmHg
same,SBP difference value compared with the basic value,[1]; [18],(−6.3 mmHg
same,SBP,[1]; [19],202 mmHg
same,SBP difference value compared with the basic value,[1]; [19],(−6.0 mmHg
same,SBP,[1]; [20],207 mmHg
same,SBP difference value compared with the basic value,[1]; [20],(−0.4 mmHg
same,SBP,[1]; [21],206 mmHg
same,SBP difference value compared with the basic value,[1]; [21],(−1.7 mmHg
same,period after administration with significant antihypertensive effect,[1]; Chl 2.25 mg/kg,2 to 12 h
same,AUC0-24h (area under blood pressure reduction-time curve),[1]; Chl 2.25 mg/kg i.g. 8 days,−199.0 mmHg · h
same,maximum reduction of the blood pressure,[1]; Chl 2.25 mg/kg i.g. 8 days,−15.0 mmHg
same,SBP,[1]; [22],198 mmHg
same,SBP difference value compared with the basic value,[1]; [22],(−8.3 mmHg
same,SBP,[1]; [23],192 mmHg
same,SBP difference value compared with the basic value,[1]; [23],(−11.3 mmHg
same,SBP,[1]; [24],195 mmHg
same,SBP difference value compared with the basic value,[1]; [24],(−11.1 mmHg
same,SBP,[1]; [25],197 mmHg
same,SBP difference value compared with the basic value,[1]; [25],(−9.4 mmHg
same,SBP,[1]; [26],202 mmHg
same,SBP difference value compared with the basic value,[1]; [26],(−4.6 mmHg
same,SBP,[1]; [27],205 mmHg
same,SBP difference value compared with the basic value,[1]; [27],(−1.3 mmHg
same,influence on the maximum reduction of SBP and the AUC compared with the blank control group,"[1]; Chl 0.0675, 0.36, 0.54 and 0.72 mg/kg",no significant influence
same,influence on the maximum reduction of SBP and the AUC compared with the blank control group,[1]; Chl 1.125 and 2.25 mg/kg,significant decrease
same,SBP,[1]; [28],202 mmHg
same,SBP difference value compared with the basic value,[1]; [28],(−2.0 mmHg
same,SBP,[1]; [29],202 mmHg
same,SBP difference value compared with the basic value,[1]; [29],(−2.0 mmHg
same,SBP,[1]; [30],201 mmHg
same,SBP difference value compared with the basic value,[1]; [30],(−3.7 mmHg
same,SBP,[1]; [31],203 mmHg
same,SBP difference value compared with the basic value,[1]; [31],(−1.9 mmHg
same,SBP,[1]; [32],202 mmHg
same,SBP difference value compared with the basic value,[1]; [32],(−2.6 mmHg
same,SBP,[1]; [33],203 mmHg
same,SBP difference value compared with the basic value,[1]; [33],(−1.6 mmHg
same,SBP,[1]; [34],203 mmHg
same,SBP difference value compared with the basic value,[1]; [34],(−3.9 mmHg
same,SBP,[1]; [35],202 mmHg
same,SBP difference value compared with the basic value,[1]; [35],(−4.9 mmHg
same,SBP,[1]; [36],202 mmHg
same,SBP difference value compared with the basic value,[1]; [36],(−4.9 mmHg
same,SBP,[1]; [37],205 mmHg
same,SBP difference value compared with the basic value,[1]; [37],(−2.6 mmHg
same,SBP,[1]; [38],205 mmHg
same,SBP difference value compared with the basic value,[1]; [38],(−2.4 mmHg
same,SBP,[1]; [39],205 mmHg
same,SBP difference value compared with the basic value,[1]; [39],(−2.3 mmHg
same,lowering of 24-hour blood pressure,[2]; [40],12.4 mmHg
same,lowering of night-time blood pressure,[2]; [40],13.5 mmHg
same,antihypertensive efficacy relative to that of hydrochlorothiazide,[2]; according to Khoska,1.5-2 times
same,reduction of SBP compared with the basic value,patients,12.7-15.9 mmHg
same,AUC0-14d,[3]; Chl 0.15625 mg/kg i.g. for 14 days,−36.0 mmHg · d
same,AUC0-24h,"[3]; Chl 0.15625 mg/kg i.g., after first administration",−47.0 mmHg · h
